This note sets out measurements from patent US12344587B2, “Synthetic retinoids for use in RAR activation” (UNIVERSITY OF DURHAM, priority 2019, dated 2025).

Usually solubility stands for how much of the substance goes into solution per volume. Broadly, the pEC50 is −log10 of the EC50, conventionally taken in molar units.

pEC50: −log10 of the molar value. Converted amounts (≈) assume the structure as drawn.

Data set [1] is described as follows: Turbidimetric aqueous solubility. In kind it is physicochemical. The following applies: aqueous buffer, kinetic from dmso stock, 0.01 M phosphate buffered saline pH 7.4, 1% DMSO, 37° C. How it is done:
Test compound (10 mM in DMSO) is serially diluted to give solutions of 0.1, 0.3, 1 and 3 mM in DMSO. Each test compound concentration is then further diluted 1 in 100 in buffer (0.01 M phosphate buffered saline pH 7.4) so that the final DMSO concentration was 1% and the final test compound concentrations were 1, 3, 10, 30 and 100 μM. The experiment was performed at 37° C. and each concentration sample was incubated in 7 replicate wells. The plates were incubated for 2 hr at 37° C. before the absorbance was measured at 620 nm. The solubility of the sample was estimated from the concentration of test compound that produced an increase in absorbance above vehicle control (i.e., 1% DMSO in buffer).

The test system of the next data set is SH-SY5Y cells. Description: Induction of neurite outgrowth. The data set is classed as cell-based. The following applies: Homo sapiens, 120 h, 10 nM, 5 days, read-out: Neurite Outgrowth Fold increase. The protocol: SY—SY5Y cells were plated at 10,000 cells/well in 12-well plates containing acid-treated/poly-L-lysine-coated coverslips. After 24 hours, each retinoid was added to the medium at a concentration of 10 nM and the plates were incubated for 5 days. After retinoid treatment, SH-SY5Y cells on coverslips were washed twice in PBS, fixed in 4% paraformaldehyde (PFA) for 20 minutes at room temperature, and washed twice with PBS.
For immunocytochemical staining of neurites, cells on coverslips were washed three times in PBS, and incubated in blocking solution (10% donkey serum and 0.1% triton X-100 in PBS) for 1 hour at room temperature. Cells were then labelled by incubation overnight at 4° C. with β-III tubulin primary antibody (Sigma-Aldrich) diluted 1:1000 in blocking buffer. Following incubation overnight, cells were washed three times with PBS containing 0.1% Triton X-100 solution (PBST) before incubation with anti-mouse monoclonal secondary antibody (1:300 in PBST; Jackson Immunoresearch) for 2 hours at room temperature. Finally, after three washes in PBST and a final wash in PBS, the coverslips were mounted on slides and stored at 4° C.
ImageJ software with the NeuronJ plugin was used to quantify neurite outgrowth on stained cells. For each experiment, 10 different randomly selected images were taken from each cover slip using a Nikon Eclipse E400 fluorescence microscope. Each image was converted into an 8-bit image (necessary for the NeuronJ plugin) and optimised with the brightness and contrast tool in GIMP (GNU Image Manipulation Program). For each image, individual traces were drawn for each clearly-identifiable neurite using the tracing tool in the NeuronJ plugin. Neurite length was measured in pixels and transformed into the corresponding length in μm depending on the magnification used. The average neurite length for each image was calculated by dividing total neurite length by the total number of neurites per image. Ten images per cover slip were measured and the mean calculated for the coverslip overall. Coverslips were in triplicate for each retinoid and concentration.

The next data set relates to ERK1/2. In words: ERK1/2 phosphorylation assay, AlphaLISA SureFire Ultra (non-genomic activity). In kind it is cell-based. More on the design: Non-genomic activity (ERK½ Phosphorylation Assay) Efficacy (Emax): unit not given here. The following applies: SH-SY5Y cells, serum-free, 30 minutes stimulation. How it is done: The non-genomic activity of synthetic retinoids was evaluated by measuring their ability to induce phosphorylation of ERK1/2 using the AlphaLISA® SureFire® Ultra ERK1/2 kit.
In this assay, SH-SY5Y cells (100,000 cells/well) were plated in 96-well plates and serum-starved in DMEM for 24 hours. Retinoids were tested at concentrations from 10−5 M to 10−11 M and at a final concentration of 0.1% DMSO in the medium. The assay was carried out on the SH-SY5Y cells in serum-free DMEM, cells were stimulated by retinoid for 30 minutes at 37° C.
At the end of the assay, the medium was removed, and cells were lysed in 50 μl of freshly prepared 1× lysis buffer (supplied in the kit). The 96-well plate was agitated on an orbital shaker (SO1, Stuart Scientific) at approximately 350 rpm for 10 minutes at room temperature.
In the meantime, the activation buffer was diluted 25-fold in the reaction buffers. Under green light in a dark room, the acceptor beads were diluted 50-fold in the freshly prepared reaction mix while the donor beads were diluted 50-fold in dilution buffer to obtain two final reaction mixtures.
10 μl of cell lysate was then transferred per well into 384-well white Proxiplates plates (PerkinElmer) and 5 μl of each prepared acceptor and donor reaction mixture was added under green light in a dark room. Plates were wrapped with aluminium foil and incubated at room temperature for at least 3 hours. Readings were taken using an Envision system (PerkinElmer Life Sciences) using the AlphaScreen® settings.
A general note: Alpha assays give light when donor and acceptor beads are brought close together.

Data set [2] has as its system retinoic acid response element (RARE). Description: X-Gal RA based reporter assay (genomic activity). The following applies: Sil-15 reporter cells, overnight incubation. The data set is classed as cell-based. How it is done: The genomic activity of synthetic retinoids was evaluated by determining their efficiency of inducing transcription using the X-Gal Assay. The X-Gal Assay utilizes Sil-15 reporter cells in which the transcription of the LacZ gene is under control of a promoter linked to a retinoic acid response element (RARE). After treatment of the reporter cells with retinoids, the ability of the compounds to induce transcription can be attained by monitoring and quantifying the activity of β-galactosidase produced by the reporter cells.
Sil-15 cells were plated at 100,000 cells per well in 96-well plates coated in 0.1% gelatin. The following day, serial dilutions of retinoid ligands, prepared in Dulbecco's Modified Eagle's Medium (DMEM) containing 10% foetal calf serum (FCS) were added at concentrations from 10^−6 M to 10^−14 M and the plates were incubated overnight. All concentrations for the ATRA standard curve and the other retinoid ligands were tested in triplicate.
The next day, the assay plates were washed twice with phosphate buffered saline (PBS), fixed with 100 μl per well of 1% glutaraldehyde and 1 mM MgCl2 in PBS for 15 minutes and washed twice with PBS. β-galactosidase activity was detected by the addition of 100 μl of freshly-prepared 0.2% X-Gal in 1 mM MgCl2, 3.3 mM potassium ferricyanide and 3.3 mM potassium ferrocyanide in PBS per well. Plates were incubated for 6 hours at 37° C. in 5% CO2 and colour change was detected by reading the plates at 650 nm on an Emax Precision Microplate Reader (Molecular Devices).
A general note: In a reporter assay the amount or activity of a reporter protein is the signal.

Take `CC1(C)CCC(C)(C)c2cc(C#Cc3ccc(C(=O)O)cc3)ccc21` [EC23, reference compound]: the solubility at 2 h in data set [1] turned out to be 6.5 µM (≈ 2.16 µg/mL). Besides, the fold induction at 0.01 µM with SH-SY5Y cells was 2.2. In addition, the pEC50 in the data set on ERK1/2 (Homo sapiens, 0.5 h, read-out: Non-genomic activity (ERK½ Phosphorylation Assay) Potency (EC50)) is 7.50; in data set [2] (read-out: Genomic Activity (X-Gal RA Based Reporter Assay) Potency (EC50)) it was 9.89. In the data set on ERK1/2, the “Non-genomic activity (ERK½ Phosphorylation Assay) Efficacy (Emax)” value is 91.93. Further, in data set [2], the “Genomic Activity (X-Gal RA Based Reporter Assay) Efficacy (Emax)” value is 169.18.
